Results on 1 compound are retold here after ChEMBL document CHEMBL4706528, “The design, synthesis and anti-tumor mechanism study of new androgen receptor degrader” (Eur J Med Chem, 2020).

Activity calls are given as the source filed them. No cut-off for these calls is given here.

In data set [1] the test system is LNCaP. As to the kind of experiment: Induction of apoptosis in human LNCaP cells assessed as late apoptotic cells level at 1 micromol/L incubated for 24 hrs by Annexin V/PI staining staining based flow cytometry (reference value: 0.940%). Type of data set: functional. As to conditions: dose 1 µmol/L, at 1 µM.
The subject of data set [2] is LNCaP. As to the kind of experiment: Antiproliferative activity against androgen-positive human LNCaP cells assessed as cell growth inhibition measured after 72 hrs by SRB assay. Type of data set: functional, cell-based.
Data set [3] concerns the target Transmembrane protease serine 2 (Homo sapiens) (UniProt O15393). Put plainly: Induction of downregulation of TMPRSS2 (unknown orgin) human LNCaP cells at 10 uM after 24 hrs by Western blot analysis. For orientation: In western blotting, separated proteins are transferred to a membrane and probed.
Data set [4] addresses Prostate-specific antigen (Homo sapiens) (UniProt P07288). Put plainly: Induction of downregulation of PSA (unknown orgin) human LNCaP cells at 10 uM after 24 hrs by Western blot analysis.
In data set [5] the target is T1, Androgen receptor (Homo sapiens) (UniProt P10275).
T1 sequence (whole entry): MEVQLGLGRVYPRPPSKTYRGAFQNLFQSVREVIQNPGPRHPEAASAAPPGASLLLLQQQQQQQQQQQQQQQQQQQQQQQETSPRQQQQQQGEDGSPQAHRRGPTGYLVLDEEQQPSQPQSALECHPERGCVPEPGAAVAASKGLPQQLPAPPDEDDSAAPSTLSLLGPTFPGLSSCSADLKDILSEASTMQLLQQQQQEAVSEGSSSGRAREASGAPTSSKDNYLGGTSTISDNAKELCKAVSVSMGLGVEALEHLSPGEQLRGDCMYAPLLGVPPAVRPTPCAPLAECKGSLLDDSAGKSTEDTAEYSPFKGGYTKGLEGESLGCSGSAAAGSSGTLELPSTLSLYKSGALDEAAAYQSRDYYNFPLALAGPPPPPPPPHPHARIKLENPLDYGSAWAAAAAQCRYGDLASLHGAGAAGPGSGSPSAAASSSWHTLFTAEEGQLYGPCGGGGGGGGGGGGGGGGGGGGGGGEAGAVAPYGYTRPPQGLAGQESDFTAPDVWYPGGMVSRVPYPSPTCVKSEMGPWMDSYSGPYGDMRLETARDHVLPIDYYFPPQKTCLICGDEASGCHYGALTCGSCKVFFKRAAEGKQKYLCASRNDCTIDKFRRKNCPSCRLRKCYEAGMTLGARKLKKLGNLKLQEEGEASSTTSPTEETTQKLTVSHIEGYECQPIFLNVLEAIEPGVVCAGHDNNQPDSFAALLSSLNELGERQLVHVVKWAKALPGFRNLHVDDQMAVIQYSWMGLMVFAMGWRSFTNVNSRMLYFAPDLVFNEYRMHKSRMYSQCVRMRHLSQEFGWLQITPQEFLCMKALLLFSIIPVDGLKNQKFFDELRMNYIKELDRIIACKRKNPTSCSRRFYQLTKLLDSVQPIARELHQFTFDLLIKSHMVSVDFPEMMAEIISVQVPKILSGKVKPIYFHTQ
As to the kind of experiment: Binding affinity to androgen receptor LBD (unknown origin) at 10 uM incubated for 4 hrs under dark by fluorescence polarization based binding assay relative to R1881. On the technique in general: In fluorescence polarisation assays a small probe gives low polarisation when free and higher when bound to something large.

A further data set has as its system GES1. Put plainly: Cytotoxicity against androgen-negative human GES1 cells assessed as cell growth inhibition measured after 72 hrs by SRB assay. Type of data set: cell-based. As to conditions: GES1, 72 h.
In data set [6] the test system is LNCaP. Put plainly: Induction of apoptosis in human LNCaP cells assessed as early apoptotic cells level at 1 micromol/L incubated for 24 hrs by Annexin V/PI staining staining based flow cytometry (reference value: 2.09%). The settings on record: dose 1 µmol/L, at 1 µM. Type of data set: functional. A general note: In flow cytometry, cells or beads pass a laser one at a time.

The test system of data set [7] is LNCaP. Put plainly: Induction of cell cycle arrest in human LNCaP cells assessed as accumulation at S phase at 2 micromol/L after 24 hrs by RNase A/PI-staining based flow cytometric analysis (reference value: 20.69%). The settings on record: dose 2 µmol/L, at 2 µM. The data set is classed as functional.
The subject of data set [8] is LNCaP. Put plainly: Induction of cell cycle arrest in human LNCaP cells assessed as accumulation at G2 phase at 10 micromol/L after 24 hrs by RNase A/PI-staining based flow cytometric analysis (reference value: 20.87%). Type of data set: functional. As to conditions: dose 10 µmol/L, at 10 µM.
The test system of data set [9] is LNCaP. Put plainly: Induction of cell cycle arrest in human LNCaP cells assessed as accumulation at G2 phase at 2 micromol/L after 24 hrs by RNase A/PI-staining based flow cytometric analysis (reference value: 20.87%). The settings on record: dose 2 µmol/L, at 2 µM. Type of data set: functional.
Data set [10] relates to LNCaP. Put plainly: Induction of apoptosis in human LNCaP cells assessed as total apoptotic cells at 10 uM incubated for 24 hrs by Annexin V/PI staining staining based flow cytometry (reference value: 2.76%). Type of data set: functional.
Another data set has as its target T2, Progesterone receptor (Homo sapiens, UniProt P06401).
T2 sequence (P06401 whole entry): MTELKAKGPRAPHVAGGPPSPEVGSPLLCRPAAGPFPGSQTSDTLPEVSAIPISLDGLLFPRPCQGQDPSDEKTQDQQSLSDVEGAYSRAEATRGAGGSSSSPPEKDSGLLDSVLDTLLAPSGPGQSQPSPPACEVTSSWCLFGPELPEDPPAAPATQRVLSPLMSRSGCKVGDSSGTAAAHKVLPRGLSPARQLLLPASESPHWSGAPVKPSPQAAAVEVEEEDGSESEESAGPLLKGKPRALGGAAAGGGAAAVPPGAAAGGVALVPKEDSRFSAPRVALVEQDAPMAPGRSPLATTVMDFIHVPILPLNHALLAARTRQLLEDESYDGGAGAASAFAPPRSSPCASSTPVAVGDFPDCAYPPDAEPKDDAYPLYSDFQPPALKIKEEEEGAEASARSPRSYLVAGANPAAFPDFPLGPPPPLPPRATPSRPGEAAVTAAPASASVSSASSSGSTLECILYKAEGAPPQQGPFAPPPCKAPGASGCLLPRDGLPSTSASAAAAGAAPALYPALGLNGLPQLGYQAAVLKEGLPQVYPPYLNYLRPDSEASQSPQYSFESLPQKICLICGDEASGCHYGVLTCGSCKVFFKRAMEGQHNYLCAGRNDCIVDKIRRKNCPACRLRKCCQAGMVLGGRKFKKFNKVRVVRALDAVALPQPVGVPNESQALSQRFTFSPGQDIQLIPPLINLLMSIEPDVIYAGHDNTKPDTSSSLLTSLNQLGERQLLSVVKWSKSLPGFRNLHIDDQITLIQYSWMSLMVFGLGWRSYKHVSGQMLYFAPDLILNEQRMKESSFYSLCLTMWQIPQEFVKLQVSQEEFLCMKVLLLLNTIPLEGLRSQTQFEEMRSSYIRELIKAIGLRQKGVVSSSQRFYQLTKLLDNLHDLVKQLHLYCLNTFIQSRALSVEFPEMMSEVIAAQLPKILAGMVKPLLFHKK
As to the kind of experiment: Induction of downregulation of progesterone receptor in human T47D cells at 10 uM measured after 24 hrs by Western blot analysis. Type of data set: cell-based.

For data set [11], the target named is Transmembrane protease serine 2 (Homo sapiens) (UniProt O15393). Put plainly: Induction of downregulation of TMPRSS2 (unknown orgin) human LNCaP cells at 2 uM after 24 hrs by Western blot analysis.
Transmembrane protease serine 2 (Homo sapiens), sequence (O15393 1-255 limits assumed): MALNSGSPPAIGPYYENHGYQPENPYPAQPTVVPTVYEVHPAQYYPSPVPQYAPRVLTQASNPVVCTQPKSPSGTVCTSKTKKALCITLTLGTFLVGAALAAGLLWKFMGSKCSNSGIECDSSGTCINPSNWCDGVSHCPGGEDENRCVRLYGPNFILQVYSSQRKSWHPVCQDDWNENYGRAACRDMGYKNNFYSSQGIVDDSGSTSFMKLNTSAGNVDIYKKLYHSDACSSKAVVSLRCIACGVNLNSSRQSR
Transmembrane protease serine 2 (Homo sapiens), sequence (O15393 256-492 limits assumed): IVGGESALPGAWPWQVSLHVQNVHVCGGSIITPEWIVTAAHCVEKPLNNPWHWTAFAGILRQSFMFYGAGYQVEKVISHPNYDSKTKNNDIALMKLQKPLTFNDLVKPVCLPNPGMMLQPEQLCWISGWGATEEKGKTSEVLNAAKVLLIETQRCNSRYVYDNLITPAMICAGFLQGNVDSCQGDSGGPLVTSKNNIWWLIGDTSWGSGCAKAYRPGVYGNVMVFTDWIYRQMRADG
The target is the same in data set [12]. As to the kind of experiment: Induction of downregulation of TMPRSS2 (unknown orgin) human LNCaP cells at 1 uM after 24 hrs by Western blot analysis.
The subject of data set [13] is LNCaP. As to the kind of experiment: Induction of apoptosis in human LNCaP cells assessed as viable cells level at 10 micromol/L incubated for 24 hrs by Annexin V/PI staining staining based flow cytometry (reference value: 96.3%). Type of data set: functional. The settings on record: dose 10 µmol/L, at 10 µM.

Prostate-specific antigen (Homo sapiens), sequence (P07288 whole entry, looked up): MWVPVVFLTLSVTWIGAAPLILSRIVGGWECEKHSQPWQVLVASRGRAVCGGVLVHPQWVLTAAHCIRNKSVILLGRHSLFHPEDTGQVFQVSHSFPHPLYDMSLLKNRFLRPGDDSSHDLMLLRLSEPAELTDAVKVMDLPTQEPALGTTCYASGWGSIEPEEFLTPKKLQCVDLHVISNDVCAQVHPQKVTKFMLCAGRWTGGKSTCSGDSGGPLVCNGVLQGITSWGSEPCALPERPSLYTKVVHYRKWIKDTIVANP

As for `CC1(C)C(=O)N(c2ccc(C#N)c(C(F)(F)F)c2)C(=S)N1CCCCCn1cc(COCCOCCOC(=O)CC23CC4CC(CC(C4)C2)C3)nn1`, the Activity in the data set with LNCaP [1] came out at 1.59%; in data set [5] it was 85.3%; in the data set with LNCaP [6], 1.56%; in the data set with LNCaP [7] it was 12.65%; in the data set on LNCaP [8], 6.4%; in the data set with LNCaP [9] it was 8.9%. Moreover, the Activity with LNCaP [10] is given as 19.22%; on Progesterone receptor it was “Active”; in the data set with LNCaP [13] it was 79%. For the same compound, the IC50 in the data set on LNCaP [2] was 1.75 µM; in the data set with GES1, greater than 80 µM. The outcome in [3], in data set [4], in data set [11] and in [12] was Active.

For orientation: IC50 means the concentration at which inhibition is half-maximal.
